The target in the test is T1, glucocorticoid receptor (Homo sapiens, UniProt P04150).
T1 construct: expressed in transfected cells
T1 sequence (P04150 524-758 limits assumed): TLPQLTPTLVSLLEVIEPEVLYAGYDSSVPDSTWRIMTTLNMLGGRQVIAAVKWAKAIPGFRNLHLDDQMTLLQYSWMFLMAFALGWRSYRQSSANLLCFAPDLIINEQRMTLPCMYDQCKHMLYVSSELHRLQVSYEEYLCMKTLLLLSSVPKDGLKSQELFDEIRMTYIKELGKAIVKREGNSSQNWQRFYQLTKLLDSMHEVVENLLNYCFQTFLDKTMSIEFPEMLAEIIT
Briefly: Agonistic mode of action on the glucocorticoid receptor (CHO-Gal4/GR luciferase reporter cell line). The test is classed as cell-based. As to conditions: range class observed in the agonistic assay or the antagonistic assay (CHO-Gal4/GR reporter cells); table does not say which mode applies per example. The procedure, abridged: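 CHO cells stably carrying GAL4 DBD–GR ligand-binding-domain fusion and GAL4-UAS firefly luciferase reporter, 5000 cells/well grown 24 h, then compounds added in Opti-MEM at 8 half-log concentrations from 10 μM to 0.003 μM (0.5% DMSO), quadruplicates. Agonist-induced luminescence read on FLIPR Tetra; EC50 calculated.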
Background: A reporter such as luciferase makes a cellular process visible.
The molecule `Cc1nnc2n1-c1c(cc(F)c(-c3ccc(F)c4c3ccn4S(C)(=O)=O)c1C(F)(F)F)NC2(C)C` [Example 484, 7-Fluoro-8-(7-fluoro-1-methyl-sulfonyl-1H-indol-4-yl)-1,4,4-trimethyl-9-(trifluoromethyl)-5H-[1,2,4]triazolo[4,3-a]quinoxaline] registered an IC50 or EC50 (agonist or antagonist mode not specified) of 100 to 1000 nM.
To `Cc1c(-c2cc(F)cc3c(C4CC4)c[nH]c23)c(Cl)cc2c1-n1c(C)nnc1C(C)(C)N2` [Example 485, 7-Chloro-8-(3-cyclopropyl-5-fluoro-1H-indol-7-yl)-1,4,4,9-tetramethyl-5H-[1,2,4]triazolo [4,3-a]quinoxaline] belongs less than 100 nM; to `Cc1c(-c2cccc3c2ccn3C)c(F)cc2c1-n1c(C)nnc1C(C)(C)N2` [Example 486, 7-Fluoro-1,4,4,9-tetramethyl-8-(1-methyl-1H-indol-4-yl)-5H-[1,2,4]triazolo[4,3-a]quinoxaline], less than 100 nM; to `COc1c(-c2cccc3c2ccn3C)c(F)cc2c1-n1c(C)nnc1C(C)(C)N2` [Example 487, 7-Fluoro-9-methoxy-1,4,4-trimethyl-8-(1-methyl-1H-indol-4-yl)-5H-[1,2,4]triazolo[4,3-a] quinoxaline], 100 to 1000 nM.
The molecule `Cc1c(-c2cccc3c2ccn3C)c(Cl)cc2c1-n1c(C)nnc1C(C)(C)N2` [Example 488, 7-Chloro-1,4,4,9-tetramethyl-8-(1-methyl-1H-indol-4-yl)-5H-[1,2,4]triazolo[4,3-a]quinoxaline] registered an IC50 or EC50 (agonist or antagonist mode not specified) of 100 to 1000 nM.
In the case of `Cc1nnc2n1-c1c(cc(F)c(-c3cc(F)cc4c3cnn4CC(F)F)c1F)NC2(C)C` [Example 489, 8-[1-(2,2-Difluoro-ethyl)-6-fluoro-1H-indazol-4-yl]-7,9-difluoro-1,4,4-trimethyl-5H-[1,2,4]triazolo [4,3-a]quinoxaline], the IC50 or EC50 (agonist or antagonist mode not specified) is less than 100 nM.
Consider `COc1c(-c2cccc3[nH]ncc23)c(F)cc2c1-n1c(C)nnc1C(C)(C)N2` [Example 490, 7-Fluoro-8-(1H-indazol-4-yl)-9-methoxy-1,4,4-trimethyl-5H-[1,2,4]triazolo[4,3-a]quinoxaline], for which the IC50 or EC50 (agonist or antagonist mode not specified) was in the range of 100 to 1000 nM.
`Cc1cc(-c2c(Cl)cc3c(c2C)-n2c(C)nnc2C(C)(C)N3)c2ccn(S(C)(=O)=O)c2c1` [Example 491, 7-Chloro-1,4,4,9-tetramethyl-8-(6-methyl-1-methylsulfonyl-1H-indol-4-yl)-5H-[1,2,4]triazolo[4,3-a] quinoxaline] came in with an IC50 or EC50 (agonist or antagonist mode not specified) of less than 100 nM.
Take `Cc1cc(-c2c(F)cc3c(c2F)-n2c(C)nnc2C(C)(C)N3)c2ccn(S(C)(=O)=O)c2c1` [Example 492, 7,9-Difluoro-1,4,4-trimethyl-8-(6-methyl-1-methylsulfonyl-1H-indol-4-yl)-5H-[1,2,4]triazolo [4,3-a]quinoxaline]: the IC50 or EC50 (agonist or antagonist mode not specified) is less than 100 nM.
The result for `Cc1cc(-c2c(F)cc3c(c2C)-n2c(C)nnc2C(C)(C)N3)c2ccn(S(C)(=O)=O)c2c1` [Example 493, 7-Fluoro-1,4,4,9-tetramethyl-8-(6-methyl-1-methylsulfonyl-1H-indol-4-yl)-5H-[1,2,4]triazolo[4,3-a] quinoxaline] reads less than 100 nM; that for `Cc1c(-c2cc(C#N)cc3[nH]ccc23)c(F)cc2c1-n1c(C)nnc1C(C)(C)N2` [Example 494, 4-(7-Fluoro-1,4,4,9-tetramethyl-5H-[1,2,4]triazolo[4,3-a]quinoxalin-8-yl)-1H-indole-6-carbonitrile], 100 to 1000 nM.
Molecule `Cc1nnc2n1-c1c(cc(F)c(-c3ccc(F)c4[nH]ccc34)c1C(F)F)NC2(C)C` [Example 496, 9-(Difluoro-methyl)-7-fluoro-8-(7-fluoro-1H-indol-4-yl)-1,4,4-trimethyl-5H-[1,2,4]triazolo[4,3-a] quinoxaline] registered an IC50 or EC50 (agonist or antagonist mode not specified) of less than 100 nM.
The result for `Cc1nnc2n1-c1c(cc(F)c(-c3ccc(F)c4[nH]ccc34)c1F)NC2(C)C` [Example 497, 7,9-Difluoro-8-(7-fluoro-1H-indol-4-yl)-1,4,4-trimethyl-5H-[1,2,4]triazolo[4,3-a]quinoxaline] reads 100 to 1000 nM; that for `Cc1nnc2n1-c1c(ccc(-c3cccc4c3ccn4S(C)(=O)=O)c1C(F)(F)F)NC2(C)C` [Example 498, 1,4,4-Trimethyl-8-(1-methylsulfonyl-1H-indol-4-yl)-9-(trifluoromethyl)-5H-[1,2,4]triazolo[4,3-a]quinoxaline], 100 to 1000 nM; that for `Cc1nnc2n1-c1c(ccc(-c3cc(F)cc4c3ccn4S(C)(=O)=O)c1C(F)(F)F)NC2(C)C` [Example 499, 8-(6-Fluoro-1-methylsulfonyl-1H-indol-4-yl)-1,4,4-trimethyl-9-(trifluoromethyl)-5H-[1,2,4]triazolo[4,3-a]quinoxaline], 100 to 1000 nM.
Molecule `COc1cc2c(c(C(F)(F)F)c1-c1cccc3c1ccn3CC(F)F)-n1c(C)nnc1C(C)(C)N2` [Example 500, 8-[1-(2,2-Difluoro-ethyl)-1H-indol-4-yl]-7-methoxy-1,4,4-trimethyl-9-(trifluoromethyl)-5H-[1,2,4]triazolo[4,3-a]quinoxaline] showed an IC50 or EC50 (agonist or antagonist mode not specified) of 100 to 1000 nM.
The result for `Cc1nnc2n1-c1c(cc(F)c(-c3ccc(F)c4[nH]ncc34)c1F)NC2(C)C` [Example 501, 7,9-Difluoro-8-(7-fluoro-1H-indazol-4-yl)-1,4,4-trimethyl-5H-[1,2,4]triazolo[4,3-a]quinoxaline] reads 100 to 1000 nM; that for `Cc1nnc2n1-c1c(cc(F)c(-c3cccc4c3ccn4S(=O)(=O)CC3CC3)c1C(F)F)NC2(C)C` [Example 502, 8-[1-(Cyclopropyl-methylsulfonyl)-1H-indol-4-yl]-9-(difluoro-methyl)-7-fluoro-1,4,4-trimethyl-5H-[1,2,4]triazolo[4,3-a]quinoxaline], 100 to 1000 nM; that for `Cc1c[nH]c2c(-c3ccc4c(c3C(F)(F)F)-n3c(C)nnc3C(C)(C)N4)cccc12` [Example 503, 1,4,4-Trimethyl-8-(3-methyl-1H-indol-7-yl)-9-(trifluoromethyl)-5H-[1,2,4]triazolo[4,3-a]quinoxaline], 100 to 1000 nM.
Consider `Cc1c(-c2ccc(F)c3[nH]ccc23)c(F)cc2c1-n1c(C)nnc1C(C)(C)N2` [Example 504, 7-Fluoro-8-(7-fluoro-1H-indol-4-yl)-1,4,4,9-tetramethyl-5H-[1,2,4]triazolo[4,3-a]quinoxaline], for which the IC50 or EC50 (agonist or antagonist mode not specified) was in the range of 100 to 1000 nM.
Turning to `Cc1nnc2n1-c1c(cc(F)c(-c3ccc(F)c4[nH]ccc34)c1C(F)(F)F)NC2(C)C` [Example 505, 7-Fluoro-8-(7-fluoro-1H-indol-4-yl)-1,4,4-trimethyl-9-(trifluoromethyl)-5H-[1,2,4]triazolo[4,3-a]quinoxaline], the IC50 or EC50 (agonist or antagonist mode not specified) lay within 100 to 1000 nM.
In turn, `Cc1c(-c2ccc(F)c3[nH]ccc23)c(Cl)cc2c1-n1c(C)nnc1C(C)(C)N2` [Example 506, 7-Chloro-8-(7-fluoro-1H-indol-4-yl)-1,4,4,9-tetramethyl-5H-[1,2,4]triazolo[4,3-a]quinoxaline] gave an IC50 or EC50 (agonist or antagonist mode not specified) of 100 to 1000 nM.
For the molecule `Cc1c[nH]c2c(-c3ccc4c(c3C(F)(F)F)-n3c(C)nnc3C(C)(C)N4)cc(F)cc12` [Example 507, 8-(5-Fluoro-3-methyl-1H-indol-7-yl)-1,4,4-trimethyl-9-(trifluoro-methyl)-5H-[1,2,4]triazolo[4,3-a] quinoxaline], the IC50 or EC50 (agonist or antagonist mode not specified) is less than 100 nM.
In turn, `Cc1nnc2n1-c1c(cc(Cl)c(-c3cc(F)cc4c3cnn4CC(F)F)c1F)NC2(C)C` [Example 508, 7-Chloro-8-[1-(2,2-difluoro-ethyl)-6-fluoro-1H-indazol-4-yl]-9-fluoro-1,4,4-trimethyl-5H-[1,2,4] triazolo[4,3-a]quinoxaline] came in with an IC50 or EC50 (agonist or antagonist mode not specified) of 100 to 1000 nM.
`COc1cc2c(c(C(F)(F)F)c1-c1cccc3c1ccn3C)-n1c(C)nnc1C(C)(C)N2` [Example 509, 7-Methoxy-1,4,4-trimethyl-8-(1-methyl-1H-indol-4-yl)-9-(trifluoromethyl)-5H-[1,2,4]triazolo[4,3-a]quinoxaline] showed an IC50 or EC50 (agonist or antagonist mode not specified) of 100 to 1000 nM.
The result for `Cc1c(-c2cccc3[nH]ncc23)c(F)cc2c1-n1c(C)nnc1C(C)(C)N2` [Example 510, 7-Fluoro-8-(1H-indaxol-4-yl)-1,4,4,9-tetramethyl-5H-[1,2,4] triazolo[4,3-a]quinoxaline] reads 100 to 1000 nM.
To `Cc1nnc2n1-c1c(cc(F)c(-c3cc(Cl)cc4[nH]ccc34)c1F)NC2(C)C` [Example 511, 8-(6-Chloro-1H-indol-4-yl)-7,9-difluoro-l,4,4-trimethyl-5H-[1,2,4]triazolo[4,3-a]quinoxaline] belongs less than 100 nM; to `Cc1ccc(-c2c(F)cc3c(c2C(F)F)-n2c(C)nnc2C(C)(C)N3)c2ccn(S(C)(=O)=O)c12` [Example 512, 9-(Difluoro-methyl)-7-fluoro-1,4,4-trimethyl-8-(7-methyl-1-methylsulfonyl-1H-indol-4-yl)-5H-[1,2,4]triazolo[4,3-a]quinoxaline], 1000 to 15000 nM; to `Cc1c(-c2cc(Cl)cc3[nH]ccc23)c(F)cc2c1-n1c(C)nnc1C(C)(C)N2` [Example 513, 8-(6-Chloro-1H-indol-4-yl)-7-fluoro-1,4,4,9-tetramethyl-5H-[1,2,4]triazolo[4,3-a]quinoxaline], 100 to 1000 nM.

The record behind these values is patent US12110293B2, “Substituted triazolo quinoxaline derivatives” (GRÜNENTHAL GMBH, priority 2018, dated 2024).
